Reference: patent publication US10202353B2, “Therapeutic compounds” (Gilead Sciences, Inc., priority 2014, dated 2019)

Key:
HIV-IIIb = assay: Test A: Antiviral assay in MT4 Cells; assay type: cell-based, HIV-1; settings: Human immunodeficiency virus 1, 120 h; 2 μM drug concentration; MT4 cells infected with HIV-IIIb, 5 days; calculated from dose response curve; values normalized to 100% where greater than 100; read-out: % Inhibition at 2 μM (percent inhibition of virus-induced cell killing)
Description: (§1) For the antiviral assay, 40 μL of a concentration required to achieve a final effective 1× test concentration of 3-fold serially diluted compound in culture medium with 10% FBS was added to each well of a 384-well plate (10 concentrations) in quadruplicate. MT4 cells were next mixed with HIV-IIIb at an m.o.i of 0.003 for 1 hour, after which time 35 μL of virus/cell mixture (2000 cells) was immediately added to each well containing 40 μL of diluted compound. The plates were then incubated at 37° C. for 5 days. After 5 days of incubation, 25 μl of 2× concentrated CellTiter-Glo™ Reagent (catalog # G7571, Promega Biosciences, Inc., Madison, Wis.) was added to each well containing MT-4 cells. Cell lysis was carried out by incubating at room temperature for 10 min and then chemiluminescence was read. EC50 values were calculated as the compound concentration that caused a 50% decrease in luminescence signal, a measure of HIV-1 replication. Percent inhibition of virus-induced cell killing calculated from the dose response curve at 2 μM drug concentration is shown in the table below.

[1] = Test B: Cytotoxicity Assay; assay type: cell-based; settings: human, uninfected MT4 cells, same protocol as Test A
Description: as §1, with “below. Compound cytotoxicity and the corresponding CC50 values was determined using the same protocol as described in the antiviral assay (Test A) except that uninfected cells were used.” for “below.”

Structure (SMILES): CN(C(=O)[C@H](Cc1ccccc1)NC(=O)Cn1nc(C(F)(F)F)c2c1CCCC2)c1ccccc1 [Compound 1, (S)—N-methyl-N,3-diphenyl-2-(2-(3-(trifluoromethyl)-4,5,6,7-tetrahydro-1H-indazol-1-yl)acetamido)propanamide]
- inhibition at 2 µM (HIV-IIIb): 98%
- CC50 at 5 days [1]: 23.5 µM

Structure (SMILES): COc1ccc(N(C)C(=O)[C@H](Cc2ccccc2)NC(=O)Cn2nc(C(F)(F)F)c3c2CCCC3)cc1 [Compound 2]
- inhibition at 2 µM (HIV-IIIb): 100%
- CC50 at 5 days [1]: 18.4 µM

Structure (SMILES): CN(C(=O)[C@H](Cc1ccccc1)NC(=O)Cn1nc(C(F)(F)F)c2c1CCCC2)c1ccc2ccccc2c1 [Compound 3, (S)—N-methyl-N-(naphthalen-2-yl)-3-phenyl-2-(2-(3-(trifluoromethyl)-4,5,6,7-tetrahydro-1H-indazol-1-yl)acetamido)propanamide]
- inhibition at 2 µM (HIV-IIIb): 79%
- CC50 at 5 days [1]: 11.1 µM

Structure (SMILES): COc1ccc(N(C)C(=O)[C@H](Cc2cc(F)cc(F)c2)NC(=O)Cn2nc(C(F)(F)F)c3c2CCCC3)cc1 [Compound 4, (S)-3-(3,5-difluorophenyl)-N-(4-methoxyphenyl)-N-methyl-2-(2-(3-(trifluoromethyl)-4,5,6,7-tetrahydro-1H-indazol-1-yl)acetamido)propanamide]
- inhibition at 2 µM (HIV-IIIb): 100%
- CC50 at 5 days [1]: 12.5 µM

Structure (SMILES): CN(C(=O)[C@H](Cc1ccncc1)NC(=O)Cn1nc(C(F)(F)F)c2c1CCCC2)c1ccccc1 [Compound 5]
- inhibition at 2 µM (HIV-IIIb): 0%
- CC50 at 5 days [1]: > 53 µM

Structure (SMILES): CN(C(=O)[C@H](Cc1cccnc1)NC(=O)Cn1nc(C(F)(F)F)c2c1CCCC2)c1ccccc1 [Compound 6]
- inhibition at 2 µM (HIV-IIIb): 52%
- CC50 at 5 days [1]: > 53 µM

Structure (SMILES): CN(C(=O)[C@H](Cc1ccccn1)NC(=O)Cn1nc(C(F)(F)F)c2c1CCCC2)c1ccccc1 [Compound 7]
- inhibition at 2 µM (HIV-IIIb): 1%
- CC50 at 5 days [1]: > 53 µM

Structure (SMILES): CN(C(=O)[C@H](Cc1cccs1)NC(=O)Cn1nc(C(F)(F)F)c2c1CCCC2)c1ccccc1 [Compound 8]
- inhibition at 2 µM (HIV-IIIb): 95%
- CC50 at 5 days [1]: 25.6 µM

Structure (SMILES): CN(C(=O)[C@H](Cc1cncn1C)NC(=O)Cn1nc(C(F)(F)F)c2c1CCCC2)c1ccccc1 [Compound 9]
- inhibition at 2 µM (HIV-IIIb): 5%
- CC50 at 5 days [1]: > 53 µM

Structure (SMILES): CN(C(=O)[C@H](Cc1csc2ccccc12)NC(=O)Cn1nc(C(F)(F)F)c2c1CCCC2)c1ccccc1 [Compound 10, (S)-3-(benzo[b]thiophen-3-yl)-N-methyl-N-phenyl-2-(2-(3-(trifluoromethyl)-4,5,6,7-tetrahydro-1H-indazol-1-yl)acetamido)propanamide]
- inhibition at 2 µM (HIV-IIIb): 2%
- CC50 at 5 days [1]: 10.5 µM

Structure (SMILES): CN(C(=O)[C@H](Cc1cscn1)NC(=O)Cn1nc(C(F)(F)F)c2c1CCCC2)c1ccccc1 [Compound 11, (S)—N-methyl-N-phenyl-3-(thiazol-4-yl)-2-(2-(3-(trifluoromethyl)-4,5,6,7-tetrahydro-1H-indazol-1-yl)acetamido)propanamide]
- inhibition at 2 µM (HIV-IIIb): 21%
- CC50 at 5 days [1]: > 53 µM

Structure (SMILES): CN(C(=O)[C@H](Cn1cccn1)NC(=O)Cn1nc(C(F)(F)F)c2c1CCCC2)c1ccccc1 [Compound 12, (S)—N-methyl-N-phenyl-3-(1H-pyrazol-1-yl)-2-(2-(3-(trifluoromethyl)-4,5,6,7-tetrahydro-1H-indazol-1-yl)acetamido)propanamide]
- inhibition at 2 µM (HIV-IIIb): 10%
- CC50 at 5 days [1]: > 53 µM

Structure (SMILES): CN(C(=O)[C@H](Cc1ccccc1)NC(=O)Cn1nc(C(F)(F)F)c2c1CCCCC2)c1ccccc1 [Compound 13]
- inhibition at 2 µM (HIV-IIIb): 87%
- CC50 at 5 days [1]: 22.2 µM

Structure (SMILES): CN(C(=O)[C@H](CC1CCC1)NC(=O)Cn1nc(C(F)(F)F)c2c1CCCC2)c1ccccc1 [Compound 14]
- inhibition at 2 µM (HIV-IIIb): 16%
- CC50 at 5 days [1]: 29 µM

Structure (SMILES): CN(C(=O)[C@H](Cc1cccc(C#N)c1)NC(=O)Cn1nc(C(F)(F)F)c2c1CCCC2)c1ccccc1 [Compound 15, (S)-3-(3-cyanophenyl)-N-methyl-N-phenyl-2-(2-(3-(trifluoromethyl)-4,5,6,7-tetrahydro-1H-indazol-1-yl)acetamido)propanamide]
- inhibition at 2 µM (HIV-IIIb): 26%
- CC50 at 5 days [1]: 26.3 µM

Structure (SMILES): CN(C(=O)[C@H](Cc1cccc(Cl)c1)NC(=O)Cn1nc(C(F)(F)F)c2c1CCCC2)c1ccccc1 [Compound 16, (S)-3-(3-chlorophenyl)-N-methyl-N-phenyl-2-(2-(3-(trifluoromethyl)-4,5,6,7-tetrahydro-1H-indazol-1-yl)acetamido)propanamide]
- inhibition at 2 µM (HIV-IIIb): 58%
- CC50 at 5 days [1]: 16.7 µM

Structure (SMILES): CN(C(=O)[C@H](Cc1cccc([N+](=O)[O-])c1)NC(=O)Cn1nc(C(F)(F)F)c2c1CCCC2)c1ccccc1 [Compound 17, (S)—N-methyl-3-(3-nitrophenyl)-N-phenyl-2-(2-(3-(trifluoromethyl)-4,5,6,7-tetrahydro-1H-indazol-1-yl)acetamido)propanamide]
- inhibition at 2 µM (HIV-IIIb): 0%
- CC50 at 5 days [1]: 19.2 µM

Structure (SMILES): CN(C(=O)[C@H](Cc1cccc(C(N)=O)c1)NC(=O)Cn1nc(C(F)(F)F)c2c1CCCC2)c1ccccc1 [Compound 18, (S)-3-(3-(methyl(phenyl)amino)-3-oxo-2-(2-(3-(trifluoromethyl)-4,5,6,7-tetrahydro-1H-indazol-1-yl)acetamido)propyl)benzamide]
- inhibition at 2 µM (HIV-IIIb): 0%
- CC50 at 5 days [1]: > 53 µM

Structure (SMILES): CN(C(=O)[C@H](Cc1cccc(Br)c1)NC(=O)Cn1nc(C(F)(F)F)c2c1CCCC2)c1ccccc1 [Compound 19, (S)-3-(3-bromophenyl)-N-methyl-N-phenyl-2-(2-(3-(trifluoromethyl)-4,5,6,7-tetrahydro-1H-indazol-1-yl)acetamido)propanamide]
- inhibition at 2 µM (HIV-IIIb): 27%
- CC50 at 5 days [1]: 17.3 µM

Structure (SMILES): CN(C(=O)[C@H](CC1CCOCC1)NC(=O)Cn1nc(C(F)(F)F)c2c1CCCC2)c1ccccc1 [Compound 20, (S)—N-methyl-N-phenyl-3-(tetrahydro-2H-pyran-4-yl)-2-(2-(3-(trifluoromethyl)-4,5,6,7-tetrahydro-1H-indazol-1-yl)acetamido)propanamdide]
- inhibition at 2 µM (HIV-IIIb): 0%
- CC50 at 5 days [1]: > 53 µM

Structure (SMILES): CN(C(=O)[C@H](Cc1cccc(C(F)(F)F)c1)NC(=O)Cn1nc(C(F)(F)F)c2c1CCCC2)c1ccccc1 [Compound 21, (S)—N-methyl-N-phenyl-2-(2-(3-(trifluoromethyl)-4,5,6,7-tetrahydro-1H-indazol-1-yl)acetamido)-3-(3-(trifluoromethyl)phenyl)propanamide]
- inhibition at 2 µM (HIV-IIIb): 0%
- CC50 at 5 days [1]: 11.3 µM

Structure (SMILES): CN(C(=O)[C@H](Cc1ccsc1)NC(=O)Cn1nc(C(F)(F)F)c2c1CCCC2)c1ccccc1 [Compound 22, (S)—N-methyl-N-phenyl-3-(thiophen-3-yl)-2-(2-(3-(trifluoromethyl)-4,5,6,7-tetrahydro-1H-indazol-1-yl)acetamido)propanamide]
- inhibition at 2 µM (HIV-IIIb): 94%
- CC50 at 5 days [1]: 25 µM

Structure (SMILES): CN(C)c1ccc(N(C)C(=O)[C@H](Cc2ccccc2)NC(=O)Cn2nc(C(F)(F)F)c3c2CCCC3)cc1 [Compound 23, (S)—N-(4-(dimethylamino)phenyl)-N-methyl-3-phenyl-2-(2(3-(trifluoromethyl)-4,5,6,7-tetrahydro-1H-indazol-1-yl)acetamido)propanamide]
- inhibition at 2 µM (HIV-IIIb): 100%
- CC50 at 5 days [1]: 19.2 µM

Structure (SMILES): CN(C(=O)[C@H](Cc1cc(F)cc(F)c1)NC(=O)Cn1nc(C(F)(F)F)c2c1CCCC2)c1ccc(F)cc1 [Compound 24, (S)-3-(3,5-difluorophenyl)-N-(4-fluorophenyl)-N-methyl-2-(2-(3-(trifluoromethyl)-4,5,6,7-tetrahydro-1H-indazol-1-yl)acetamido)propanamide]
- inhibition at 2 µM (HIV-IIIb): 93%
- CC50 at 5 days [1]: 12.2 µM

Structure (SMILES): COc1ccc(N(C)C(=O)[C@H](Cc2cc(F)cc(F)c2)NC(=O)Cn2nc(C(F)(F)F)c3c2CC(C)CC3)cc1 (stereo partly drawn) [Compound 25, (2S)-3-(3,5-difluorophenyl)-N-(4-methoxyphenyl)-N-methyl-2-(2-(6-methyl-3-(trifluoromethyl)-4,5,6,7-tetrahydro-1H-indazol-1-yl)acetamido)propanamide]
- inhibition at 2 µM (HIV-IIIb): 100%
- CC50 at 5 days [1]: 11.1 µM

Structure (SMILES): COc1ccc(N(C)C(=O)[C@H](Cc2cc(F)cc(F)c2)NC(=O)Cn2nc(C(F)(F)F)c3c2C(C)CCC3)cc1 (stereo partly drawn) [Compound 26, (2S)-3-(3,5-difluorophenyl)-N-(4-methoxyphenyl)-N-methyl-2-(2-(7-methyl-3-(trifluoromethyl)-4,5,6,7-tetrahydro-1H-indazol-1-yl)acetamido)propanamide]
- inhibition at 2 µM (HIV-IIIb): 100%
- CC50 at 5 days [1]: 9.82 µM

Structure (SMILES): COc1ccc(N(C)C(=O)[C@H](Cc2cc(F)cc(F)c2)NC(=O)Cn2nc(C(F)(F)F)c3c2CCC2(C3)OCCO2)cc1 [Compound 27]
- inhibition at 2 µM (HIV-IIIb): 32%
- CC50 at 5 days [1]: 19.9 µM
